Laboratory results reported in patent publication US6737383B1, “Herbicidal oxadiazolidines” (priority 1999, dated 2004).

What was measured:
crabgrass = test: Test B pre/postemergence crabgrass; assay type: in vivo, Digitaria sanguinalis
Summary of the method: (§1)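 Test chemicals in a non-phytotoxic solvent mixture with surfactant were sprayed preemergence onto planted seeds and postemergence onto plants 2 to 18 cm tall (1- to 4-leaf stage). After twelve to sixteen days in a greenhouse, injury was visually rated against untreated controls from 0 (no effect) to 10 (complete control).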

pigweed = test: Test B pre/postemergence pigweed; assay type: in vivo, Amaranthus retroflexus
Summary of the method: as §1

giant foxtail = test: Test B pre/postemergence giant foxtail; assay type: in vivo, Setaria faberii
Summary of the method: as §1

blackgrass = test: Test B pre/postemergence blackgrass; assay type: in vivo, Alopecurus myosuroides
Summary of the method: as §1

duck salad = test: Test B flood test duck salad; assay type: in vivo, Heteranthera limosa
Summary of the method: (§2)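 Flood test on plants grown to the 2-leaf stage; treated plants kept in greenhouse twelve to sixteen days, then visually rated against controls on a 0 (no effect) to 10 (complete control) scale.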

soybean = test: Test B pre/postemergence soybean; assay type: in vivo, Glycine max
Summary of the method: as §1

surinam grass = test: Test B pre/postemergence surinam grass; assay type: in vivo, Brachiaria decumbens
Summary of the method: as §1

velvetleaf = test: Test B pre/postemergence velvetleaf; assay type: in vivo, Abutilon theophrasti
Summary of the method: as §1

wild oat = test: Test B pre/postemergence wild oat; assay type: in vivo, Avena fatua
Summary of the method: as §1

morningglory = test: Test B pre/postemergence morningglory; assay type: in vivo, Ipomoea hederacea
Summary of the method: as §1

purple nutsedge = test: Test B pre/postemergence purple nutsedge; assay type: in vivo, Cyperus rotundus
Summary of the method: as §1

rape = test: Test B pre/postemergence rape; assay type: in vivo, Brassica napus
Summary of the method: as §1

corn = test: Test B pre/postemergence corn; assay type: in vivo, Zea mays
Summary of the method: as §1

bedstraw = test: Test B pre/postemergence bedstraw; assay type: in vivo, Galium aparine
Summary of the method: as §1

rice = test: Test B flood test rice; assay type: in vivo, Oryza sativa
Summary of the method: as §2

wheat = test: Test B pre/postemergence wheat; assay type: in vivo, Triticum aestivum
Summary of the method: as §1

[1] = Preemergence, Rate 62 g/ha, scale of 0 to 10 where 0 is no effect and 10 is complete control
[2] = Preemergence, Rate 125 g/ha, 0 is no effect, 10 is complete control
[3] = Preemergence, Rate 250 g/ha, scale 0 to 10, 0 is no effect, 10 is complete control
[4] = Preemergence, Rate 500 g/ha, scale of 0 to 10 where 0 is no effect and 10 is complete control
[5] = Rate 62 g/ha, Postemergence, scale of 0 to 10 where 0 is no effect and 10 is complete control
[6] = Rate 125 g/ha, Postemergence, scale 0 to 10
[7] = Rate 500 g/ha, Postemergence, scale 0 to 10
[8] = Rate 62 g/ha, headed Pre-emergence (flood test species), scale 0 to 10 (0 no effect, 10 complete control)
[9] = Rate 125 g/ha, Pre-emergence, flood test species, scale 0 to 10 where 0 is no effect and 10 is complete control
[10] = Rate 250 g/ha, Pre-emergence, flood-test species, scale 0 to 10, 0 is no effect, 10 is complete control
[11] = Rate 500 g/ha, headed Pre-emergence (flood test species), scale 0 to 10 (0 no effect, 10 complete control)

SMILES: CC(C)N(C(=O)n1oc(=O)n(-c2ccc(OC(F)(F)F)cc2)c1=O)c1ccc(F)cc1 [Compound 202]
- Crabgrass plant response rating (crabgrass; [1]): 3
- Crabgrass plant response rating (0 to 10 scale) (crabgrass; [2]): 4
- Crabgrass plant response rating (crabgrass; [3]): 6
- Plant response rating, Crabgrass (crabgrass; [4]): 9
- Crabgrass plant response rating (crabgrass; [5]): 0
- Crabgrass plant response rating (crabgrass; [6]): 0
- Plant response rating (0 to 10; 0 is no effect, 10 is complete control), Crabgrass (crabgrass; Rate 250 g/ha, Postemergence): 1
- Crabgrass plant response rating (crabgrass; [7]): 4
- Redroot pigweed plant response rating (pigweed; [1]): 0
- Redroot pigweed plant response rating (0 to 10 scale) (pigweed; [2]): 0
- Redroot pigweed plant response rating (pigweed; [3]): 8
- Plant response rating, Redroot pigweed (pigweed; [4]): 3
- Redroot pigweed plant response rating (pigweed; [5]): 3
- Redroot pigweed plant response rating (pigweed; [6]): 4
- Plant response rating (0 to 10; 0 is no effect, 10 is complete control), Redroot pigweed (pigweed; Rate 250 g/ha, Postemergence): 6
- Redroot pigweed plant response rating (pigweed; [7]): 7
- Giant foxtail plant response rating (giant foxtail; [1]): 2
- Giant foxtail plant response rating (0 to 10 scale) (giant foxtail; [2]): 6
- Giant foxtail plant response rating (giant foxtail; [3]): 7
- Plant response rating, Giant foxtail (giant foxtail; [4]): 10
- Giant foxtail plant response rating (giant foxtail; [5]): 0
- Giant foxtail plant response rating (giant foxtail; [6]): 0
- Plant response rating (0 to 10; 0 is no effect, 10 is complete control), Giant foxtail (giant foxtail; Rate 250 g/ha, Postemergence): 0
- Giant foxtail plant response rating (giant foxtail; [7]): 2
- Blackgrass plant response rating (blackgrass; [1]): 0
- Blackgrass plant response rating (0 to 10 scale) (blackgrass; [2]): 0
- Blackgrass plant response rating (blackgrass; [3]): 5
- Plant response rating, Blackgrass (blackgrass; [4]): 2
- Blackgrass plant response rating (blackgrass; [5]): 0
- Blackgrass plant response rating (blackgrass; [6]): 3
- Plant response rating (0 to 10; 0 is no effect, 10 is complete control), Blackgrass (blackgrass; Rate 250 g/ha, Postemergence): 5
- Blackgrass plant response rating (blackgrass; [7]): 6
- Ducksalad plant response rating (duck salad; [8]): 0
- Ducksalad plant response rating (duck salad; [9]): 0
- Ducksalad plant response rating (duck salad; [10]): 0
- Plant response rating, Ducksalad (duck salad; [11]): 0
- Soybean plant response rating (soybean; [1]): 0
- Soybean plant response rating (0 to 10 scale) (soybean; [2]): 0
- Soybean plant response rating (soybean; [3]): 0
- Plant response rating, Soybean (soybean; [4]): 0
- Soybean plant response rating (soybean; [5]): 2
- Soybean plant response rating (soybean; [6]): 2
- Plant response rating (0 to 10; 0 is no effect, 10 is complete control), Soybean (soybean; Rate 250 g/ha, Postemergence): 3
- Soybean plant response rating (soybean; [7]): 3
- B. signalgrass plant response rating (surinam grass; [1]): 0
- B. signalgrass plant response rating (0 to 10 scale) (surinam grass; [2]): 0
- B. signalgrass plant response rating (surinam grass; [3]): 0
- Plant response rating, B. signalgrass (surinam grass; [4]): 0
- B. signalgrass plant response rating (surinam grass; [5]): 0
- B. signalgrass plant response rating (surinam grass; Rate 125 g/ha, Postemergence, scale 0 (no effect) to 10 (complete control)): 0
- Plant response rating, B. signalgrass (surinam grass; Rate 250 g/ha, Postemergence, scale 0 to 10, 0 is no effect, 10 is complete control): 0
- B. signalgrass plant response rating (surinam grass; Rate 500 g/ha, Postemergence, scale 0 to 10, 0 no effect, 10 complete control): 0
- Velvetleaf plant response rating (velvetleaf; [1]): 0
- Velvetleaf plant response rating (velvetleaf; [3]): 6
- Plant response rating, Velvetleaf (velvetleaf; [4]): 1
- Velvetleaf plant response rating (velvetleaf; [5]): 0
- Velvetleaf plant response rating (velvetleaf; [6]): 0
- Plant response rating (0 to 10; 0 is no effect, 10 is complete control), Velvetleaf (velvetleaf; Rate 250 g/ha, Postemergence): 0
- Wild oats plant response rating (wild oat; [1]): 0
- Wild oats plant response rating (wild oat; [3]): 0
- Plant response rating, Wild oats (wild oat; [4]): 5
- Wild oats plant response rating (wild oat; [5]): 0
- Wild oats plant response rating (wild oat; [6]): 0
- Plant response rating (0 to 10; 0 is no effect, 10 is complete control), Wild oats (wild oat; Rate 250 g/ha, Postemergence): 0
- Morningglory plant response rating (morningglory; [1]): 0
- Morningglory plant response rating (0 to 10 scale) (morningglory; [2]): 0
- Morningglory plant response rating (morningglory; [3]): 0
- Plant response rating, Morningglory (morningglory; [4]): 1
- Morningglory plant response rating (morningglory; [5]): 2
- Morningglory plant response rating (morningglory; [6]): 5
- Plant response rating (0 to 10; 0 is no effect, 10 is complete control), Morningglory (morningglory; Rate 250 g/ha, Postemergence): 8
- Morningglory plant response rating (morningglory; [7]): 9
- Nutsedge plant response rating (purple nutsedge; [1]): 0
- Nutsedge plant response rating (purple nutsedge; [5]): 0
- Nutsedge plant response rating (purple nutsedge; [6]): 0
- Plant response rating (0 to 10; 0 is no effect, 10 is complete control), Nutsedge (purple nutsedge; Rate 250 g/ha, Postemergence): 0
- Nutsedge plant response rating (purple nutsedge; [7]): 0
- Rape plant response rating (rape; [1]): 0
- Rape plant response rating (0 to 10 scale) (rape; [2]): 0
- Rape plant response rating (rape; [3]): 0
- Plant response rating, Rape (rape; [4]): 0
- Rape plant response rating (rape; [5]): 1
- Rape plant response rating (rape; [6]): 1
- Plant response rating (0 to 10; 0 is no effect, 10 is complete control), Rape (rape; Rate 250 g/ha, Postemergence): 1
- Rape plant response rating (rape; [7]): 4
- Corn plant response rating (corn; [1]): 0
- Corn plant response rating (0 to 10 scale) (corn; [2]): 0
- Corn plant response rating (corn; [3]): 0
- Plant response rating, Corn (corn; [4]): 0
- Corn plant response rating (corn; [5]): 0
- Corn plant response rating (corn; [6]): 0
- Plant response rating (0 to 10; 0 is no effect, 10 is complete control), Corn (corn; Rate 250 g/ha, Postemergence): 0
- Corn plant response rating (corn; [7]): 0
- Bedstraw plant response rating (bedstraw; [1]): 0
- Bedstraw plant response rating (0 to 10 scale) (bedstraw; [2]): 0
- Bedstraw plant response rating (bedstraw; [3]): 6
- Plant response rating, Bedstraw (bedstraw; [4]): 2
- Bedstraw plant response rating (bedstraw; [5]): 1
- Bedstraw plant response rating (bedstraw; [6]): 2
- Plant response rating (0 to 10; 0 is no effect, 10 is complete control), Bedstraw (bedstraw; Rate 250 g/ha, Postemergence): 4
- Bedstraw plant response rating (bedstraw; [7]): 4
- Rice plant response rating (rice; [8]): 0
- Rice plant response rating (rice; [9]): 0
- Rice plant response rating (rice; [10]): 0
- Plant response rating, Rice (rice; [11]): 0
- Wheat plant response rating (wheat; [1]): 0
- Wheat plant response rating (wheat; [3]): 0
- Plant response rating, Wheat (wheat; [4]): 2
- Wheat plant response rating (wheat; [5]): 0
- Wheat plant response rating (wheat; [6]): 0
- Plant response rating (0 to 10; 0 is no effect, 10 is complete control), Wheat (wheat; Rate 250 g/ha, Postemergence): 0
